Data: patent publication US20070254843A1, “Methods for treating bone associated diseases by the use of methionine aminopeptidase-2 inhibitors” (Praecis Pharmaceuticals Incorporated, priority 2006, published 2007)

What was measured:
PG-PS-induced arthritis = assay: Rat model of PG-PS induced arthritis, paw swelling; type: in vivo; conditions: 1, 5 and 10 mg/kg p.o. qod, day 15 to 31, versus vehicle
Experimental: Rat model of PG-PS induced arthritis. Female Lewis rats (109-130 g) were received from Charles River Laboratories. Food and water were available ad libitum. PG-PS (25 mg/kg) was injected i.p. on day 1 and responding animals were randomized into treatment groups on day 14. Vehicle (11% HPCD in PBS), dex and the MetAP-2 inhibitor (1, 5, and 10 mg/kg) were administered p.o., qod. Paw swelling was monitored using a plethysmometer (Stoelting Co., Woodale, Ill.) according to instrument specifications. The volumes of the two hind paws were measured and averaged on day 1, 4, 6, 8, 10, 13, 15, 17, 20, 22, 23, 27, 29 and 31. Ten animals were assigned to each group except the vehicle group and animals which received no PG-PS, but 10 mg/kg MetAP-2 inhibitor (n=4).

MetAP-2 = target: T1, MetAP-2 (Rattus norvegicus, UniProt P38062); assay: MetAP-2 pharmacodynamic assay in wbc lysates; type: in vivo; conditions: po, PG-PS arthritis rats, read-out: MetAP-2 in wbc inhibited relative to vehicle-treated group
T1 construct: wbc from animals of each study group were pooled and cell lysates were prepared as previously described; from tissue; host or cells: white blood cells (wbc) of female Lewis rats, pooled per study group and lysed
T1 sequence (P38062 whole entry): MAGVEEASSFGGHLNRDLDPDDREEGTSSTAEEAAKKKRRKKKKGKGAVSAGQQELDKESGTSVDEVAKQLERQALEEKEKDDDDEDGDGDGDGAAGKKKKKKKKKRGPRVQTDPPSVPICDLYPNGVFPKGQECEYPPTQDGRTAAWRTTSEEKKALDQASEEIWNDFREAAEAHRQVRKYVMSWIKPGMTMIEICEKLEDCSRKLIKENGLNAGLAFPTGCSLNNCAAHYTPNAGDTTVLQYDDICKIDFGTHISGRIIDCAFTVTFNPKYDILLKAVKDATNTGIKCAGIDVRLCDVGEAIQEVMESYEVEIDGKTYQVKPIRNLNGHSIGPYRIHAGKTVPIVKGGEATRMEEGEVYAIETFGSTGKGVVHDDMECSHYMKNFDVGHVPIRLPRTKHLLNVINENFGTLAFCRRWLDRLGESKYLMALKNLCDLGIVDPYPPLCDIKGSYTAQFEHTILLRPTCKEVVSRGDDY
Experimental: MetAP-2 pharmacodynamic assay. The MetAP-2 assay measures the amount of uninhibited MetAP-2 in cells or tissues which has not been derivitized by prior treatment with the MetAP-2 inhibitor (Bernier (2004) Proc. Natl. Acad. Sci. USA 101: 10768-10773 and Bernier (2005) J. Cell. Biochem. 95: 1191-1203). Briefly, wbc from animals of each study group were pooled and cell lysates were prepared as previously described (Bernier (2004) Proc. Natl. Acad. Sci. USA 101: 10768-10773 and Bernier (2005) J. Cell. Biochem. 95: 1191-1203). 10 μg to 20 μg of wbc protein was incubated with a biotinylated analog of the MetAP-2 inhibitor which covalently binds to the catalytic site of MetAP-2. The biotinylated MetAP-2-inhibitor complex was captured on a plate with immobilized streptavidin (Pierce), and detected with the MetAP-2 antibody CM33 (0.5 μg/ml), followed by horseradish peroxidase-conjugated goat anti-rabbit IgG secondary antibody. The amount of uninhibited MetAP-2 was determined by measuring the absorption at 450 nm using a Labsystems Multiskan plate spectrophotometer. Human recombinant MetAP-2 (Mediomics), pre-bound to the biotinylated MetAP-2 inhibitor, was used to generate the standard curve. The detection limit of this assay was 0.47 ng MetAP-2 protein/mg wbc protein.
Since the MetAP-2 inhibitor had the ability to inhibit multiple cell types critical for pathogenesis of the bone associated disease, RA, in vitro, it was hypothesized that the observations from the in vitro studies (Example 1) would translate into protection from disease in animals in the PG-PS model of arthritis. The progression of disease in this model follows a biphasic mode, with an early acute, predominantly neutrophil-driven phase which persists to days 6-7, followed by a chronic, T cell dependent phase (evident around day 12), which is characterized by chronic inflammation and erosive synovitis (Palombella (1998) Proc. Natl. Acad. Sci. USA 95:15671-15676). Therapeutic dosing of animals administered the MetAP-2 inhibitor orally (p.o.) at 1, 5 and 10 mg/kg, every other day (qod), or vehicle started at day 15 after the chronic destructive phase of the disease was established and terminated on day 31. […] The amount of uninhibited MetAP-2 in wbc of animals from all treatment groups was measured after conclusion of the study, using the MetAP-2 pharmacodynamic assay (Bernier (2004) Proc. Natl. Acad. Sci. USA 101: 10768-10773 and Bernier (2005) J. Cell. Biochem. 95: 1191-1203). […]

COMP = assay: Serum COMP ELISA in rat PG-PS arthritis model; type: in vivo; conditions: 1, 5 and 10 mg/kg p.o. qod, after conclusion of the study
Experimental: (§1) ELISAs for cartilage and bone biochemical turnover markers. The amount of COMP in serum was measured with a competitive enzyme immunoassay (MD Biosciences, Inc) according to the manufacturer's instructions. The detection limit of this ELISA was 0.2 U/L. Helical peptide (amino acids 620 to 633) from the α1 chain of bone-specific human CTX-I was measured either in cell culture supernatants of primary human OC precursors cultured as described above, or in urine with a competitive enzyme immunoassay (Quidel Corporation). The detection limit of this ELISA was 8 μg/L. All CTX-I measurements in urine were corrected for urinary creatinine excretion for each sample to account for potential differences in renal clearance rates among the different study groups. Urinary creatinine was measured with a colorimetric assay (Quidel Corporation).
The destruction of articular joints is the radiographic hallmark of bone associated disease. Therefore, the activity of the MetAP-2 inhibitor on these destructive processes was assessed by measuring biochemical turnover markers of cartilage erosion and bone resorption. […] The amount of COMP in serum of animals treated therapeutically with the MetAP-2 inhibitor (1, 5, and 10 mg/kg, p.o., qod), or vehicle was measured after conclusion of the study.

CTX-I = assay: Urinary CTX-I ELISA in rat PG-PS arthritis model; type: in vivo; conditions: 1, 5 and 10 mg/kg p.o. qod
Experimental: as §1
To assess the activity of the MetAP-2 inhibitor on systemic bone resorption in vivo, the amount of systemic CTX-I in urine was measured and corrected for urinary creatinine excretion after conclusion of the study.

HUVEC [1] = conditions: in vitro; cited from earlier work
HFLS-R^A = conditions: in vitro; cited from earlier work
HUVEC [2] = conditions: 100 nM; cited from earlier work

- inhibition at 1 mg/kg (MetAP-2; 1 mg/kg p.o. qod): ≥ 60%
- inhibition at 5 mg/kg (MetAP-2; 5 mg/kg p.o. qod): ≥ 95%
- inhibition at 10 mg/kg (MetAP-2; 10 mg/kg p.o. qod): ≥ 95%
SMILES: CO[C@@H]1[C@H](OC(=O)N[C@@H](C(N)=O)C(C)C)CC[C@]2(CO2)[C@H]1[C@@]1(C)O[C@@H]1CC=C(C)C [MetAP-2 inhibitor, (1-Carbamoyl-2-methyl-propyl)-carbamic acid-(3R,4S,5S,6R)-5-methoxy-4-[(2R,3R)-2-methyl-3-(3-methyl-but-2-enyl)-oxiranyl]-1-oxa-spiro[2,5]oct-6-yl ester]
- joint swelling and inflammation, paw swelling of the hind limbs (PG-PS-induced arthritis): significant amelioration
- systemic level of COMP in serum (COMP): significant decrease
- systemic urinary CTX-I levels corrected for creatinine, versus vehicle (CTX-I): significantly decreased
- inhibition of proliferation of HUVEC (HUVEC [1]): potently inhibit
- inhibition of proliferation of HFLS-RA (HFLS-R^A): potently inhibit
- induction of apoptosis in HUVEC (HUVEC [2]): did not induce apoptosis
